Several values for one entry are separate records, joined by “and”; a condition that tells them apart may be missing. Equal entries are not always repeated. Entries after “also recorded” stand apart in the source; their conditions may differ.
What was measured:
Plg GII = assay: HTP 96-well SAXS titration: ligand-induced closed-to-open conformational change of Plg GII; format: biochemical, human; settings: for Plg conformational change (efficacy in words) / Rg: HTP SAXS; for Plg conformational change (efficacy in words): 0.5 mg/mL Plg, pH 7.4, 16 °C, MK12 up to 10 mM; for Kopen: concentration of ligand at which 50% of Plg GII is open, 0.5 mg/mL Plg GII, 100 mM sodium phosphate pH 7.4, 5% glycerol, 15–30 min incubation, 16 °C, Rg from SAXS, fit with Hill slope; for Fold (GII/GI) of Kopen: Kopen Plg GII / Kopen Plg GI; for Kopen for GII higher than for GI: Kopen Plg GII versus Plg GI; for Kopen of EACA relative to TXA, GII: EACA versus TXA; for Kopen fold lower than L-lysine: Kopen for L-lysine 7.47 ± 1.12 mM; on Rg: values in Å
Description: An HTP assay to study the kinetics of Plg conversion from a closed to an open state was established for this work using Plg GII (see Section 4 and Figure 2).
(§1) Figure 2 Overview of the high-throughput (HTP) kinetic studies of Plg conformational change. In this HTP assay, ligand-induced Plg conformational change is set up in a 96-well plate format. (a) Ligands at the study concentration are mixed with Plg and incubated for 30 min. (b,c) The samples flowed past the X-ray beam in a quartz capillary, and scattering images were collected. (d) The resulting 2D scattering profile is averaged and buffer subtracted. (e). Rg values are derived via Guinier analysis (f) and then normalized before plotting against ligand concentration. The plot is fitted to a multi-site binding model, and Kopen, the ligand concentration required to induce 50% open Plg, is derived. Kopen is a kinetic parameter indicative of ligand efficacy or stability of closed conformation.
(§2) EACA, TXA, and L-lysine were purchased from Sigma-Aldrich (St Louis, MO, USA), whereas peptides MK12, NK55, and CK10 were purchased from GL Biochem (Shanghai, China). Solutions of EACA, TXA, and L-lysine (0.5–1.0 M) were prepared in ultrapure water. The peptide ligands are slightly acidic and therefore were dissolved in 0.1 M NH4OH with gentle sonication. MK12 and CK10 were prepared as 20 mM stock solution, and NK55 was prepared as a 625 μM stock solution.
(§3) For the SEC-SAXS experiment, in-line size exclusion chromatography using a WTC-010S5 column (WYATT) with a co-flow setup was used. For the HTP assays, 1 mg/mL protein samples were mixed 1:1 (v/v) with effector solutions to a final volume of 50 μL in a 96-well plate and incubated for 15–30 min before data collection at 16 °C. The final protein concentration for these experiments was 0.5 mg/mL in the assay buffer unless otherwise specified.
For each sample, a matching buffer was used for background scatter subtraction. To minimize the effect of radiation damage, 50 μL samples were flowed past the X-ray beam in a 1.5 mm diameter quartz capillary at 4 μL.s^−1. Then, 15 to 20 2D scattering images were collected on a Pilatus 1M X-ray detector (Dectris, Baden-Daettwil, Swizerland) using 18 × 1 s exposures. The images were averaged, and the background was subtracted using the Scatterbrain software v.2.82 available at the Australian Synchrotron
For each titration series, the Rg values were normalized as follows: Normalized Rg=Rg− minimum Rg/maximum Rg− minimum Rg

[1] = in vivo, up to, no reference given; cited from earlier work
Description: Importantly, our data support the notion that these lysine analogues can potentially outcompete the binding of Plg to its binding proteins Plg-RKT and α2AP (Figure S6) at a therapeutic dosage in vivo (plasma ...

Plg GI = assay: HTP 96-well SAXS titration: ligand-induced closed-to-open conformational change of Plg GI; format: biochemical, human; settings: for Kopen: concentration of ligand at which 50% of Plg GI is open, 0.5 mg/mL Plg, 100 mM sodium phosphate pH 7.4, 5% glycerol, 15–30 min incubation, 16 °C, Rg from SAXS
Description: as §1
Thus, we also performed kinetics studies on GI and GII to verify this hypothesis using EACA and TXA in the HTP format (Figure S4, Table 1).
as §2, §3
For each sample, a matching buffer was used for background scatter subtraction. To minimize the effect of radiation damage, 50 μL samples were flowed past the X-ray beam in a 1.5 mm diameter quartz capillary at 4 μL.s^−1. […]

Plg = Plg activation by tPA with chromogenic substrate S-2251 (Kactivation); settings: Kactivation by tPA compared to Kopen; 0.25 μM Plg, 0.01 μM tPA, 1 h, 28 °C, 0.2 mM S-2251, A405 nm
[2] = test system: Plg, mixed glycoform sample; settings: cited from earlier work
Description: To analyze the transition profiles of Plg recorded from the fully closed to the fully open forms, we fitted the kinetic data as follows: the Rg of Plg GII in 0 mM EACA (32 Å) was defined as closed. The Rg of Plg in 20 m ...

[3] = SEC-SAXS and Guinier/P(r) analysis of Plg conformation; format: physicochemical, human; settings: for Dmax (maximum diameter): P(r); for Rg (radius of gyration): SEC-SAXS, Guinier approximation; on all read-outs here: values in Å
Description: Plg was isolated and purified from human plasma from Red Cross Blood Bank Australia via three-step purification as previously described. Plg GI and GII were prepared with a TXA gradient (Figure S3). Closed Plg was prepared via exhaustive dialysis of purified protein into the assay buffer (100 mM sodium phosphate pH 7.4, 5% glycerol). Proteins were concentrated to 1 mg/mL in centrifugal filters (Merck Millipore, Burlington, MA, USA). The final filtrate was kept as a solvent blank for SAXS experiments.
Experiments were performed at the Australian Synchrotron SAXS/WAXS beamline using a fixed energy of 12 keV and a camera length of 2.6 m.
as §3
Averaged SAXS data were processed with the ATSAS 2.7.2 software package (EMBL Hamburg, Germany). PRIMUS [33] was used for determining the radius of gyration (Rg) and protein molecular weight via Guinier approximation and the particle distance distribution function P(r) using indirect Fourier transform.

[4] = open conformation, 10 mM EACA (Figure 1)

398NPSAPRELKEQQDSPGNKDFLQSLKGFPRGDKLFGPDLKLVPPMEEDYPQFGSPK452 [NK55, peptide corresponding to the last 55 residues of α2AP]
Plg conformational change (efficacy in words) (Plg GII; Plg GII): confers a higher efficiency in inducing conformational change
more efficacious than CK10 (Kopen) (Plg GII; Plg GII, versus CK10): ~ 10 fold
more efficacious than L-lysine (Kopen) (Plg GII; Plg GII, versus L-lysine): ~ 100 fold
Kopen (Plg GII): 0.08 ± 0.05 mM

441MEEDYPQFGSPK452 [MK12, peptide corresponding to the last 12 residues of α2AP]
Plg conformational change (efficacy in words) (Plg GII; Plg GII): did not observe any change in the SAXS profile of Plg GII; also recorded: could not detect any conformational change; also recorded: did not induce a conformational transition even at 10 mM; also recorded: not functional

NCCCCCC(=O)O [EACA, ε-aminocaproic acid]
Hill slope (Plg GII; EACA titration 0–20 mM, Plg GII, positive cooperativity): 1.5
Fold (GII/GI) of Kopen (Plg GII): 1.75
Kopen for GII higher than for GI (Plg GII): ~ 1.75 fold
Kopen of EACA relative to TXA, GII (Plg GII; Plg GII): ~ 3 fold
Kopen of EACA relative to TXA, GII (Plg GII; Plg GII, listed as ε-aminocaproic acid (EACA)): approximately three times greater than that of tranexamic acid (TXA)
Kopen fold lower than L-lysine (Plg GII; Plg GII): 20 fold
Kopen (Plg GII): 0.35 mM and 0.35 ± 0.02 mM
plasma concentration at therapeutic dosage [1]: ~ 10 mM
Kopen of EACA relative to TXA, GI (Plg GI; Plg GI, EACA versus TXA): ~ 3 fold
Kopen (Plg GI): 0.20 ± 0.01 mM
Kactivation higher than Kopen (Plg): > 8 fold
Kopen (previously reported) [2]: 0.45 mM

NCCCC[C@H](N)C(=O)O [L-lysine]
Kopen fold relative to CK10 (Plg GII; L-lysine concentration required versus CK10, Plg GII): ~ 10 fold
Kopen fold relative to EACA (Plg GII; L-lysine concentration required versus EACA, Plg GII): more than 20 fold
Plg conformational change (efficacy in words) (Plg GII; Plg GII): poor substrate
Kopen (Plg GII): 7.47 ± 1.12 mM

NC[C@H]1CC[C@H](C(=O)O)CC1 [TXA, tranexamic acid]
Fold (GII/GI) of Kopen (Plg GII): 1.76
Kopen for GII higher than for GI (Plg GII): ~ 1.75 fold
Plg conformational change (efficacy in words) (Plg GII; Plg GII): most efficacious ligand
Kopen fold lower than L-lysine (Plg GII; Plg GII): 60 fold
Kopen (Plg GII): 0.12 ± 0.008 mM
plasma concentration at therapeutic dosage [1]: ~ 1 mM
Kopen (Plg GI): 0.068 ± 0.002 mM
Kactivation higher than Kopen (Plg): > 3.5 fold

C139EQSKLFDSK147 [CK10, synthetic peptide corresponding to a C-terminal peptide of Plg-RKT]
Plg conformational change (efficacy in words) (Plg GII; Plg GII): highly efficacious
Kopen (Plg GII): 0.73 ± 0.24 mM

Plg GII: human plasminogen glycoform II, purified from human plasma
Dmax (maximum diameter) ([3]; closed conformation (Figure 1)): 105 Å
Dmax (maximum diameter) [3, 4]: 170 Å
diameter of approximate spheroidal particle ([3]; Porod plot, closed conformation): ~78 Å
Rg of closed Plg ([3]; SEC-SAXS comparison of closed GI and GII (Figure 5)): 31.8 ± 0.6 Å
Rg (radius of gyration) ([3]; closed conformation (Figure 1)): 31.7 ± 0.11 Å
Rg (radius of gyration) [3, 4]: 48.8 ± 0.9 Å
conformational stability of closed form (Plg GII; GII versus GI, from Kopen of EACA and TXA, listed as GII): more stable than that of GI
Rg (Plg GII; 0 mM EACA, defined as closed): 32 Å
Rg (Plg GII; 20 mM EACA, defined as open): 49 Å

Reference: article PMC10531915, “A High-Throughput Small-Angle X-ray Scattering Assay to Determine the Conformational Change of Plasminogen” (International Journal of Molecular Sciences, 2023)
